In the CheMixHub drug solubility set:

Experiment: xn = mol fraction of the nth substance listed, in the solute-free solvent

FC(F)(F)c1cccnc1Cl + CN(C)C=O + CCCCO
solubility (g/100 g solution)
Settings	263.15 K	268.15 K	273.15 K	278.15 K	283.15 K	288.15 K	293.15 K	298.15 K	303.15 K
x2 = 0.2885	31.3	36.7	42.1	48.9	55.3	61.7	68.1	74.6	81.4
x2 = 0.4479	37.6	43.2	48.7	55.3	61.5	67.7	73.7	79.9	85.9
x2 = 0.6438	43.1	48.9	54.2	61.1	67.5	73.7	79.7	85.6	90.9
x2 = 0.8281	50.8	56.5	61.9	68.2	74	79.6	85	90.4	95.1

CCOc1ccccc1C(N)=O + CO + CC#N
solubility (g/100 g solution)
Settings	x2 = 0.1	x2 = 0.2	x2 = 0.3	x2 = 0.4	x2 = 0.5	x2 = 0.6	x2 = 0.7	x2 = 0.8	x2 = 0.9
293.15 K	3.86	5.1	6.26	7.41	8.25	8.88	8.99	8.83	8.26
298.15 K	4.9	6.33	7.81	9.11	10.1	11	11.1	10.7	10.1
303.15 K	6.47	8.36	10.2	11.5	12.8	13.6	13.7	13.4	12.6
308.15 K	8.43	10.8	12.9	14.4	15.6	16.5	16.4	16.3	15.1
313.15 K	10.8	13.5	16	18.1	19.3	20.4	20.4	19.8	18.5
318.15 K	13.7	16.8	19.7	21.9	23.4	24.4	24.5	24	22.7
323.15 K	17.3	21	24	26.4	28.3	29.2	29.3	28.5	27.1

CCOC(=O)OC1=C(c2cc(C)ccc2C)C(=O)NC12CCC(OC)CC2 (stereo not given) + CC(C)=O + O
solubility (g/100 g solution)
Settings	278.15 K	283.15 K	288.15 K	293.15 K	298.15 K	303.15 K	308.15 K	313.15 K	318.15 K
x2 = 0.2	0.475	0.687	0.839	1.08	1.39	1.78	2.25	2.83	3.61
x2 = 0.4	3.7	4.54	5.58	6.92	8.55	10.5	12.8	15.7	19
x2 = 0.6	7.51	9.16	10.8	13	15.4	18.3	21.6	25.5	29.7
x2 = 0.8	9.34	10.6	12.6	14.8	17.3	20.3	23.7	27.4	31.4
